A short description of experiment [1]: Further sandalwood analogues: volatile fatty acid and methane production (Example 7, Table 14). The experiment is classed as cell-based. How it is done: (§1) Further testing of sandalwood analogues was conducted following the protocols described in Examples 3 and 5.
Experiment [2] is described as follows: Further sandalwood analogues: CH4 per bottle, compound in DMSO or ETOH (Example 7, Table 15). The experiment is classed as cell-based. The conditions noted are these: for CH4: single bottles rep a, b, c. On the procedure: as §1
The next experiment deals with rumen fluid. Nature of the experiment: Methane and volatile fatty acid production by buffered rumen fluid incubated with hay barley mix (Example 1). The conditions noted are these: 500 μg/ml; 16 hours, 39° C. The class given is cell-based, cow. How it is done: Thirty ml of a 33% buffered solution of rumen fluid withdrawn from a rumen canulated cow was incubated with 0.3 g of a 50:50 hay barley mix at 39° C. under anaerobic conditions.
After 16 hours the volume of gas produced and the percentage of methane in the headspace was measured and the resultant fermentation fluid was analysed for volatile fatty acids by HPLC.
Sandalwood oil, and control oils of commercial essential oil mixes or pure oils of eugenol or cinnamaldehyde were added in the amount of 500 μg/ml to the 30 ml buffered solution of rumen fluid prior to incubation. Sandalwood oil was obtained from Cardiff University and Sigma [SAFC (e.g. W30,050-0 lot no. 03722CC-396) and Sandalwood oil manufactured by Fluka (355263/1 lot no. 52706264).]

Where “and” joins values, the source holds several entries; their conditions need not be identical. Equal values may be shown once.

For the compound `CCC(=CCC1CC=C(C)C1(C)C)CO` (stereo not drawn) [Sanjinol, 2-ethyl-4(2,2,3-trimethyl-3-cyclopentenyl)-2-buten-1-ol], the Acetate in experiment [1] (5 μg/ml) is reported as 1978 μmol/g of feed added; in experiment [1] (50 μg/ml) it was 2192 μmol/g of feed added; in experiment [1] (100 μg/ml) it was 2359 μmol/g of feed added; in experiment [1] (500 μg/ml), 1849 μmol/g of feed added. The Butyrate in experiment [1] (5 μg/ml) was 448 μmol/g of feed added; in experiment [1] (50 μg/ml), 466 μmol/g of feed added; in experiment [1] (100 μg/ml) it was 512 μmol/g of feed added; in experiment [1] (500 μg/ml) it was 225 μmol/g of feed added. Moreover, the Methane in experiment [1] (5 μg/ml) is 1107 μmol/g of feed added; in experiment [1] (50 μg/ml), 835 μmol/g of feed added; in experiment [1] (100 μg/ml), 795 μmol/g of feed added; in experiment [1] (500 μg/ml), 741 μmol/g of feed added. The Propionate in experiment [1] (5 μg/ml) is listed as 426 μmol/g of feed added; in experiment [1] (50 μg/ml), 579 μmol/g of feed added; in experiment [1] (100 μg/ml), 697 μmol/g of feed added; in experiment [1] (500 μg/ml), 744 μmol/g of feed added. For the same compound, the TVFA in experiment [1] (5 μg/ml) is recorded as 2852 μmol/g of feed added; in experiment [1] (50 μg/ml), 3237 μmol/g of feed added; in experiment [1] (100 μg/ml), 3568 μmol/g of feed added; in experiment [1] (500 μg/ml), 2818 μmol/g of feed added. Besides, the “CH4 (mean of rep a-c)” value in experiment [2] (150 ug/30 ml in 200 ul DMSO) is 938.5618 µmol/g; in experiment [2] (150 ug/30 ml in 200 ul ETOH), 1153.269 µmol/g; in experiment [2] (15000 ug/30 ml in 200 ul DMSO) it was 743.6664 µmol/g; in experiment [2] (15000 ug/30 ml in 200 ul ETOH), 1158.419 µmol/g. The CH4 in experiment [2] (150 ug/30 ml in 200 ul DMSO) was 1107.671 µmol/g and 793.8945 µmol/g and 914.1195 µmol/g; in experiment [2] (150 ug/30 ml in 200 ul ETOH) it was 1064.879 µmol/g and 1232.288 µmol/g and 1162.641 µmol/g; in experiment [2] (15000 ug/30 ml in 200 ul DMSO), 615.569 µmol/g and 893.1559 µmol/g and 722.2742 µmol/g; in experiment [2] (15000 ug/30 ml in 200 ul ETOH), 1063.899 µmol/g and 1351.649 µmol/g and 1059.708 µmol/g.

Regarding `CC(C)=CCCC(C)=CC=O` [Citral], in the experiment with rumen fluid, the Acetate formation is given as 2754 μmole/g of feed, the Butyrate formation is given as 72 μmole/g of feed, the Methane formation was 1461 μmole/g of feed and the Propionate formation is 534 μmole/g of feed. The “Total volatile fatty acids formation” value in the experiment with rumen fluid is reported as 3361 μmole/g of feed.

Consider `CCC(=CCC1CC=C(C)C1(C)C)CO` (stereo not drawn) [Bacdanol, 2-ethyl-4-(2,2,3-trimethyl-3-cyclopenten-1-yl)-2-buten-1-ol], for which, in experiment [1] (5 μg/ml), the Acetate is 2037 μmol/g of feed added, the Butyrate was 438 μmol/g of feed added, the Methane was 934 μmol/g of feed added and the Propionate was 444 μmol/g of feed added. The TVFA in experiment [1] (5 μg/ml) was 2919 μmol/g of feed added. In experiment [1] (50 μg/ml), the Acetate was 2049 μmol/g of feed added, the Butyrate is given as 458 μmol/g of feed added, the Methane is reported as 1047 μmol/g of feed added and the Propionate is reported as 434 μmol/g of feed added. Moreover, the TVFA in experiment [1] (50 μg/ml) is listed as 2942 μmol/g of feed added. Moreover, in experiment [1] (100 μg/ml), the Acetate is 2419 μmol/g of feed added, the Butyrate was 514 μmol/g of feed added, the Methane is given as 995 μmol/g of feed added and the Propionate is 515 μmol/g of feed added. The TVFA in experiment [1] (100 μg/ml) is recorded as 3448 μmol/g of feed added. In experiment [1] (500 μg/ml), the Acetate was 2331 μmol/g of feed added, the Butyrate was 309 μmol/g of feed added, the Methane was 942 μmol/g of feed added and the Propionate is listed as 864 μmol/g of feed added. In addition, the TVFA in experiment [1] (500 μg/ml) is listed as 3503 μmol/g of feed added.

As for `CC1=CCC(CCC(C)C(C)O)C1(C)C` (stereo not drawn) [Sandalore, 5-(2,2,3-Trimethyl-3-cyclopentenhyl)-3-methylpentan-2-ol], in experiment [1] (5 μg/ml), the Acetate is reported as 2118 μmol/g of feed added, the Butyrate is 487 μmol/g of feed added, the Methane was 951 μmol/g of feed added and the Propionate was 431 μmol/g of feed added. Further, the TVFA in experiment [1] (5 μg/ml) is 3036 μmol/g of feed added. Further, in experiment [1] (50 μg/ml), the Acetate is 1972 μmol/g of feed added, the Butyrate is 453 μmol/g of feed added, the Methane is recorded as 1086 μmol/g of feed added and the Propionate is 409 μmol/g of feed added. Also, the TVFA in experiment [1] (50 μg/ml) is on record as 2834 μmol/g of feed added. Besides, in experiment [1] (100 μg/ml), the Acetate is 2119 μmol/g of feed added, the Butyrate was 432 μmol/g of feed added, the Methane is 1174 μmol/g of feed added and the Propionate was 471 μmol/g of feed added. Further, the TVFA in experiment [1] (100 μg/ml) is given as 3023 μmol/g of feed added. For the same compound, in experiment [1] (500 μg/ml), the Acetate is 2249 μmol/g of feed added, the Butyrate was 305 μmol/g of feed added, the Methane is given as 902 μmol/g of feed added and the Propionate is 897 μmol/g of feed added. The TVFA in experiment [1] (500 μg/ml) was 3451 μmol/g of feed added.

Consider `CC1C2CC(CC2C2CCC(O)CC2)C1(C)C` (stereo not drawn) [Sandela, 4-(5,5,6-Trimethylbicyclo[2.2.1]hept-2-yl)cyclohexan-1-ol], for which, in experiment [1] (5 μg/ml), the Acetate is reported as 2223 μmol/g of feed added, the Butyrate is given as 482 μmol/g of feed added, the Methane is given as 996 μmol/g of feed added and the Propionate is given as 465 μmol/g of feed added. Also, in experiment [1] (5 μg/ml), the TVFA is reported as 3169 μmol/g of feed added. Also, in experiment [1] (50 μg/ml), the Acetate is 2235 μmol/g of feed added, the Butyrate is reported as 513 μmol/g of feed added, the Methane is reported as 1052 μmol/g of feed added and the Propionate is recorded as 450 μmol/g of feed added. For the same compound, in experiment [1] (50 μg/ml), the TVFA is listed as 3198 μmol/g of feed added. Further, in experiment [1] (100 μg/ml), the Acetate is listed as 2297 μmol/g of feed added, the Butyrate was 515 μmol/g of feed added, the Methane was 1078 μmol/g of feed added and the Propionate was 477 μmol/g of feed added. Besides, the TVFA in experiment [1] (100 μg/ml) is 3289 μmol/g of feed added. In experiment [1] (500 μg/ml), the Acetate is 2270 μmol/g of feed added, the Butyrate was 317 μmol/g of feed added, the Methane is 928 μmol/g of feed added and the Propionate is reported as 680 μmol/g of feed added. Also, the TVFA in experiment [1] (500 μg/ml) is given as 3267 μmol/g of feed added.

Take `CC1=CCC(C=CC(C)C(C)O)C1(C)C` (stereo not drawn) [Ebanol, 3-Methyl-5-(2,2,3-trimethyl-3-cyclopenten-1-yl)-4-penten-2-ol]: in experiment [1] (5 μg/ml), the Acetate is reported as 2136 μmol/g of feed added, the Butyrate is given as 488 μmol/g of feed added, the Methane is reported as 952 μmol/g of feed added and the Propionate is on record as 427 μmol/g of feed added. Moreover, in experiment [1] (5 μg/ml), the TVFA is reported as 3051 μmol/g of feed added. Also, in experiment [1] (50 μg/ml), the Acetate was 2129 μmol/g of feed added, the Butyrate is reported as 474 μmol/g of feed added, the Methane was 934 μmol/g of feed added and the Propionate is recorded as 436 μmol/g of feed added. Also, the TVFA in experiment [1] (50 μg/ml) is 3039 μmol/g of feed added. Besides, in experiment [1] (100 μg/ml), the Acetate is reported as 2430 μmol/g of feed added, the Butyrate is on record as 458 μmol/g of feed added, the Methane is recorded as 833 μmol/g of feed added and the Propionate is recorded as 533 μmol/g of feed added. For the same compound, the TVFA in experiment [1] (100 μg/ml) is reported as 3421 μmol/g of feed added. Further, in experiment [1] (500 μg/ml), the Acetate is listed as 2333 μmol/g of feed added, the Butyrate is given as 332 μmol/g of feed added, the Methane is listed as 683 μmol/g of feed added and the Propionate was 939 μmol/g of feed added. Also, the TVFA in experiment [1] (500 μg/ml) is listed as 3604 μmol/g of feed added.

For the compound `C=CCc1ccc(O)c(OC)c1` [Eugenol], in the experiment on rumen fluid, the Acetate formation is recorded as 2817 μmole/g of feed, the Butyrate formation is on record as 73 μmole/g of feed, the Methane formation is listed as 1436 μmole/g of feed and the Propionate formation is recorded as 590 μmole/g of feed. Further, in the experiment on rumen fluid, the “Total volatile fatty acids formation” value was 3479 μmole/g of feed.

`O=CC=Cc1ccccc1` [Cinnamaldehyde]: in the experiment with rumen fluid, the Acetate formation was 2832 μmole/g of feed, the Butyrate formation was 73 μmole/g of feed, the Methane formation is 1471 μmole/g of feed and the Propionate formation is 492 μmole/g of feed. Besides, the “Total volatile fatty acids formation” value in the experiment with rumen fluid is recorded as 3398 μmole/g of feed.
